Data: patent US8598365B2, “Herbicides” (Syngenta Limited, priority 2007, dated 2013)

How the values were obtained:
Assay in all cases: Example B post-emergence herbicidal activity
Assay type in all cases: in vivo
Setaria faberi (SETFA) = conditions: 312 h, evaluated after 13 days, read-out: Post-emergence activity SETFA (100=total damage to plant; 0=no damage to plant); for pest or weed control at 250 g/ha: rate 250 g/ha
Procedure: (§1) Seeds of a variety of test species were sown in standard soil in pots. After cultivation for one day (pre-emergence) or after 8 days cultivation (post-emergence) under controlled conditions in a glasshouse (at 24/16° C., day/night; 14 hours light; 65% humidity), the plants were sprayed with an aqueous spray solution derived from the formulation of the technical active ingredient in acetone/water (50:50) solution containing 0.5% Tween 20 (polyoxyethelyene sorbitan monolaurate, CAS RN 9005-64-5).
(§2) The test plants were then grown in a glasshouse under controlled conditions in a glasshouse (at 24/16° C., day/night; 14 hours light; 65% humidity) and watered twice daily. After 13 days for pre and post-emergence, the test was evaluated (100=total damage to plant; 0=no damage to plant).
(§3) Alopecurus myosuroides (ALOMY), Avena fatua (AVEFA), Setaria faberi (SETFA), Echinochloa crus-galli (ECHCG), Solanum nigrum (SOLNI) and Amaranthus retoflexus (AMARE)

[1] = system: Echinochloa crus-galli (ECHCG); conditions: 312 h, evaluated after 13 days, read-out: Post-emergence activity ECHCG (100=total damage to plant; 0=no damage to plant); for pest or weed control at 250 g/ha: rate 250 g/ha
Procedure: as §1, §2, §3

[2] = system: Amaranthus retoflexus (AMARE); conditions: Amaranthus retroflexus, 312 h, evaluated after 13 days, read-out: Post-emergence activity AMARE (100=total damage to plant; 0=no damage to plant); for pest or weed control at 250 g/ha: rate 250 g/ha
Procedure: as §1, §2, §3

Avena fatua (AVEFA) = conditions: 312 h, evaluated after 13 days, read-out: Post-emergence activity AVEFA (100=total damage to plant; 0=no damage to plant); for pest or weed control at 250 g/ha: rate 250 g/ha
Procedure: as §1, §2, §3

[3] = system: Alopecurus myosuroides (ALOMY); conditions: 312 h, evaluated after 13 days, read-out: Post-emergence activity ALOMY (100=total damage to plant; 0=no damage to plant); for pest or weed control at 250 g/ha: rate 250 g/ha
Procedure: as §1, §2, §3

Structure (SMILES) | pest or weed control at 250 g/ha (Setaria faberi (SETFA)) | pest or weed control at 250 g/ha [1] | pest or weed control at 250 g/ha [2] | pest or weed control at 250 g/ha (Avena fatua (AVEFA)) | pest or weed control at 250 g/ha [3] | pest or weed control at 1000 g/ha (Setaria faberi (SETFA); rate 1000 g/ha) | pest or weed control at 1000 g/ha ([1]; rate 1000 g/ha) | pest or weed control at 1000 g/ha ([2]; rate 1000 g/ha) | pest or weed control at 1000 g/ha (Avena fatua (AVEFA); rate 1000 g/ha) | pest or weed control at 1000 g/ha ([3]; rate 1000 g/ha)
Cc1sc(-c2ccc(C=O)cc2)nc1C1=C(OC(=O)C(C)(C)C)[C@H]2CC[C@H](C2)C1=O [Compound P23] | 30% | 20% | 0% | 0% | 0% | – | – | – | – | –
Cc1sc(-c2ccc(Cl)cc2C(F)(F)F)nc1C1C(=O)[C@@H]2CC[C@@H](C2)C1=O (stereo partly shown) [Compound T6] | 50% | 40% | 0% | 0% | 0% | – | – | – | – | –
Cc1sc(-c2ccc(C(=O)O)cc2)cc1C1C(=O)C2CCC(C2)C1=O (stereo not shown) [Compound T24, 4-[4-(2,4-dioxobicyclo[3.2.1]oct-3-yl)-5-methylthiophen-2-yl]benzoic acid] | 30% | 0% | 0% | 0% | 0% | – | – | – | – | –
COC(=O)c1ccc(-c2cc(C3C(=O)[C@@H]4CC[C@@H](C4)C3=O)c(C)s2)cc1 (stereo partly shown) [Compound T25, 4-[4-(2,4-dioxobicyclo[3.2.1]oct-3-yl)-5-methylthiophen-2-yl]benzoic acid methyl ester] | – | – | – | – | – | 30% | 10% | 0% | 0% | 20%
Cc1nc(-c2ccc(Cl)cc2)sc1C1C(=O)[C@@H]2CC[C@@H](C2)C1=O (stereo partly shown) [Compound T31] | 80% | 60% | 0% | 0% | 0% | – | – | – | – | –
O=C1C(c2csc(-c3ccc(Cl)cc3)n2)C(=O)[C@H]2CC[C@@H]1C2 (stereo partly shown) [Compound T43, 3-[2-(4-chloro-phenyl)thiazol-4-yl]bicyclo[3.2.1]octane-2,4-dione] | 60% | 20% | 0% | 0% | 20% | – | – | – | – | –
Cc1nc(-c2ccc(Cl)cc2F)sc1C1C(=O)[C@@H]2CC[C@@H](C2)C1=O (stereo partly shown) [Compound T47] | 90% | 80% | 0% | 0% | 30% | – | – | – | – | –
Cc1nc(-c2ccc(Cl)c(Cl)c2)sc1C1C(=O)[C@@H]2CC[C@@H](C2)C1=O (stereo partly shown) [Compound T48] | 80% | 80% | 0% | 0% | 20% | – | – | – | – | –
Cc1scnc1C1C(=O)[C@@H]2CC[C@@H](C2)C1=O (stereo partly shown) [Compound T52] | 0% | 0% | 0% | 0% | 0% | – | – | – | – | –
Cc1sc(-c2ccsc2)nc1C1C(=O)[C@@H]2CC[C@@H](C2)C1=O (stereo partly shown) [Compound T60] | 60% | 50% | 0% | 0% | 0% | – | – | – | – | –
Cc1sc(CC(C)C)nc1C1C(=O)[C@@H]2CC[C@@H](C2)C1=O (stereo partly shown) [Compound T61] | 20% | 0% | 0% | 0% | 0% | – | – | – | – | –
Cc1sc(-c2cccc(Cl)c2Cl)nc1C1C(=O)[C@@H]2CC[C@@H](C2)C1=O (stereo partly shown) [Compound T62] | 60% | 0% | 0% | 0% | 0% | – | – | – | – | –
Cc1sc(-c2ccccc2Cl)nc1C1C(=O)[C@@H]2CC[C@@H](C2)C1=O (stereo partly shown) [Compound T71] | 50% | 20% | 0% | 0% | 0% | – | – | – | – | –
Cc1sc(-c2ccc(OC(C)C)c(Cl)c2)nc1C1C(=O)[C@@H]2CC[C@@H](C2)C1=O (stereo partly shown) [Compound T79] | 10% | 0% | 0% | 0% | 0% | – | – | – | – | –
CCc1sc(-c2ccc(Cl)cc2)[n+]([O-])c1C1C(=O)[C@@H]2CC[C@@H](C2)C1=O (stereo partly shown) [Compound T89] | 80% | 30% | 0% | 0% | 0% | – | – | – | – | –
Cc1oc(-c2ccc(Cl)cc2)nc1C1C(=O)[C@@H]2CC[C@@H](C2)C1=O (stereo partly shown) [Compound T90] | 40% | 30% | 0% | 0% | 0% | – | – | – | – | –
CCc1sc(-c2ccccc2OC)nc1C1C(=O)[C@@H]2CC[C@@H](C2)C1=O (stereo partly shown) [Compound T95] | 80% | 70% | 0% | 30% | 80% | – | – | – | – | –
CCc1sc(-c2ccsc2)nc1C1C(=O)[C@@H]2CC[C@@H](C2)C1=O (stereo partly shown) [Compound T97] | 70% | 70% | 0% | 0% | 0% | – | – | – | – | –
CCc1sc(-c2cccc(Cl)c2Cl)nc1C1C(=O)[C@@H]2CC[C@@H](C2)C1=O (stereo partly shown) [Compound T98] | 70% | 70% | 0% | 0% | 20% | – | – | – | – | –
CCc1sc(-c2ccc(C(=O)OC)cc2)nc1C1C(=O)[C@@H]2CC[C@@H](C2)C1=O (stereo partly shown) [Compound T107] | 0% | 60% | 0% | 0% | 0% | – | – | – | – | –
CCOc1ccc(-c2nc(C3C(=O)[C@@H]4CC[C@@H](C4)C3=O)c(CC)s2)cc1F (stereo partly shown) [Compound T112] | 100% | 100% | 0% | 80% | 70% | – | – | – | – | –
C=Cc1ccc(-c2nc(C3C(=O)[C@@H]4CC[C@@H](C4)C3=O)c(CC)s2)cc1 (stereo partly shown) [Compound T113] | 90% | 100% | 0% | 100% | 90% | – | – | – | – | –
CCc1sc(-c2ccc(OC(C)C)c(Cl)c2)nc1C1C(=O)[C@@H]2CC[C@@H](C2)C1=O (stereo partly shown) [Compound T114] | 90% | 60% | 0% | 0% | 10% | – | – | – | – | –
Cc1ncc(-c2ccc(Cl)cc2)cc1C1C(=O)[C@@H]2CC[C@@H](C2)C1=O (stereo partly shown) [Compound T118] | 80% | 60% | 0% | 80% | 60% | – | – | – | – | –
Cc1sc(-c2ccc(Cl)cc2)nc1C1C(=O)[C@H]2C[C@@H](C1=O)C2(C)C (stereo partly shown) [Compound T120] | 90% | 100% | 0% | 60% | 40% | – | – | – | – | –
Cc1sc(-c2ccc(Br)cc2)nc1C1C(=O)[C@H]2C[C@@H](C1=O)C2(C)C (stereo partly shown) [Compound T121] | 90% | 100% | 0% | 80% | 70% | – | – | – | – | –
